The series relates to GENE-TOX genotoxicity assays, various organisms and cells. Kind of series: GENE-TOX mutagenicity studies. The settings on record: for call: Assay Type: In vivo carcinogenicity studies. From the text:
GENE-TOX provides genetic toxicology (mutagenicity) test data from expert peer review of open scientific literature for more than 3,000 chemicals from the United States Environmental Protection Agency (EPA). GENE-TOX was established to select assay systems for evaluation, review data in the scientific literature, and recommend proper testing protocols and evaluation procedures for these systems.
GENE-TOX covers the years 1991 - 1998. It is no longer updated.
This is an archive assay for GENE-TOX mutagenicity studies.

The mark [1] stands for this setting: Species/Cell Type: Chinese hamster lung (V79) cells, Assay Type: Forward gene mutation at the HPRT or ouabain locus, Assay Code: V79-*, Activation: With metabolic activation, Evaluation Type: Evaluation A (Pre-1980).
Setting [2] is: Species/Cell Type: Nonhuman, Assay Code: CCGT, Evaluation Type: Evaluation A (Pre-1980).
Setting [3] is: Species/Cell Type: Salmonella typhimurium (one or more of the five standard strains: TA98, TA100, TA1535, TA1537, and TA1538), Assay Type: Histidine reverse gene mutation, Ames assay, Assay Code: SALT, Evaluation Type: Evaluation A (Pre-1980).
Where [4] appears, read: Species/Cell Type: Human, Assay Type: Sister-chromatid exchange (SCE) in vitro, Assay Code: SC1+D, Dose Response: With dose response, Evaluation Type: Evaluation B (Post-1980).
Where [5] appears, read: Species/Cell Type: Vicia faba, Assay Type: Chromosome aberrations, Assay Code: VIC+, Evaluation Type: Evaluation A (Pre-1980).
Where [6] appears, read: Species/Cell Type: Salmonella typhimurium (one or more of the five standard strains: TA98, TA100, TA1535, TA1537, and TA1538), Assay Type: Histidine reverse gene mutation, Ames assay, Assay Code: SAL+, Evaluation Type: Evaluation A (Pre-1980).
The mark [7] stands for this setting: Species/Cell Type: Mammalian polychromatic erythrocytes, Assay Type: Micronucleus test, chromosome aberrations, Assay Code: MNTT, Evaluation Type: Evaluation B (Post-1980).

The source made the active and inactive calls. The rule behind the calls is not given here.

`Cc1c2c(cc3ccccc13)-c1ccccc1C(O)C2O` (stereo not given): the mutagenic call under setting [1] is “inactive; negative”; the mutagenic call (Species/Cell Type: Nonhuman, Assay Type: Sister-chromatid exchange (SCE) in vitro, Assay Code: SC2T, Evaluation Type: Evaluation A (Pre-1980)) was “no conclusion”; the mutagenic call under setting [3] was “no conclusion”. Under setting [2], the call is recorded as “no conclusion”.

Take `Cc1c(N)nc([C@H](CC(N)=O)NC[C@H](N)C(N)=O)nc1C(=O)N[C@H](C(=O)N[C@H](C)[C@@H](O)[C@H](C)C(=O)N[C@H](C(=O)NCCc1nc(-c2nc(C(=O)NCCC[S+](C)C)cs2)cs1)[C@@H](C)O)[C@@H](OC1OC(CO)C(O)C(O)C1OC1OC(CO)C(O)C(OC(N)=O)C1O)c1cnc[nH]1` (stereo not given in full): the mutagenic call (Species/Cell Type: Chinese hamster ovary (CHO) cells, Assay Type: Forward gene mutation at the HPRT locus, Assay Code: CHO+, Evaluation Type: Evaluation B (Post-1980)) was “active; positive”; the mutagenic call (Species/Cell Type: Human bone marrow, Assay Type: Chromosome aberrations in vivo, Assay Code: CY5+, Evaluation Type: Evaluation A (Pre-1980)) was “active; positive”; the mutagenic call (Species/Cell Type: Human cell culture, Assay Type: Chromosome aberrations in vitro, Assay Code: CYZ+, Evaluation Type: Evaluation A (Pre-1980)) is “active; positive”; the mutagenic call (Species/Cell Type: Human lymphocytes or leukocytes, Assay Type: Chromosome aberrations in vitro, Assay Code: CY7+D, Dose Response: With dose response, Evaluation Type: Evaluation A (Pre-1980)) was “active; positive”; the mutagenic call (Species/Cell Type: Human lymphocytes, Assay Type: Micronucleus test in vitro, chromosome aberrations, Assay Code: MN7+, Evaluation Type: Evaluation A (Pre-1980)) is “active; positive”; the mutagenic call (Species/Cell Type: Human lymphocytes, Assay Type: Sister-chromatid exchange (SCE) in vitro, Assay Code: SCL+, Evaluation Type: Evaluation B (Post-1980)) is “active; positive”. Moreover, the mutagenic call by setting is: (Species/Cell Type: Human lymphocytes, Assay Type: Sister-chromatid exchange (SCE) in vitro, Assay Code: SCL-, Evaluation Type: Evaluation A (Pre-1980)) “inactive; negative”; under setting [4], “active; positive”; (Species/Cell Type: Human, Assay Type: Sister-chromatid exchange (SCE) in vitro, Assay Code: SC1-, Evaluation Type: Evaluation A (Pre-1980)) “inactive; negative”; (Species/Cell Type: Mammalian polychromatic erythrocytes, Assay Type: Micronucleus test, chromosome aberrations, Assay Code: MNT+, Evaluation Type: Evaluation B (Post-1980)) “active; positive”; (Species/Cell Type: Mammalian polychromatic erythrocytes, Assay Type: Micronucleus test, chromosome aberrations, Assay Code: MNTT, Evaluation Type: Evaluation A (Pre-1980)) “no conclusion”; (Species/Cell Type: Mouse (C3H/10T1/2) cells, Assay Type: Cell transformation, Assay Code: CTH+, Evaluation Type: Evaluation A (Pre-1980)) “active; positive”. For the same molecule, the mutagenic call is, setting by setting: (Species/Cell Type: Nonhuman, Assay Type: Chromosome aberrations in vitro, Assay Code: CY&+, Evaluation Type: Evaluation A (Pre-1980)) “active; positive”; (Species/Cell Type: Nonhuman, Assay Type: Sister-chromatid exchange (SCE) in vitro, Assay Code: SC2+D, Dose Response: With dose response, Evaluation Type: Evaluation A (Pre-1980)) “active; positive”; (Species/Cell Type: Nonhuman, Assay Type: Sister-chromatid exchange (SCE) in vitro, Assay Code: SC2+D, Dose Response: With dose response, Evaluation Type: Evaluation B (Post-1980)) “active; positive”; (Species/Cell Type: Nonhuman, Assay Type: Sister-chromatid exchange (SCE) in vivo, Assay Code: SC3+D, Dose Response: With dose response, Evaluation Type: Evaluation B (Post-1980)) “active; positive”; (Species/Cell Type: Saccharomyces cerevisiae, Assay Type: Forward gene mutation, Assay Code: YEF+, Evaluation Type: Evaluation A (Pre-1980)) “active; positive”; (Species/Cell Type: Saccharomyces cerevisiae, Assay Type: Mitotic recombination or gene conversion, Assay Code: YEC+, Evaluation Type: Evaluation A (Pre-1980)) “active; positive”. The mutagenic call was “active; positive” (Species/Cell Type: Saccharomyces cerevisiae, Assay Type: Mitotic recombination or gene conversion, Assay Code: YEH+, Evaluation Type: Evaluation A (Pre-1980)); “active; positive” (Species/Cell Type: Saccharomyces cerevisiae, Assay Type: Reverse gene mutation, Assay Code: YER+, Evaluation Type: Evaluation A (Pre-1980)); “active; positive” under setting [5]. Under setting [2], the call was “no conclusion”.

Turning to `c1ccc2nccnc2c1`, where the note is “Species/Cell Type: Mouse, Sex: Male, Assay Type: Sperm morphology, Assay Code: SPI-, Evaluation Type: Evaluation A (Pre-1980)”, the mutagenic call was “inactive; negative”.

Turning to `Nc1ccc(-c2nc(NCC(O)CO)c3ccccc3n2)s1` (stereo not given), under setting [3], the mutagenic call was “no conclusion”.

Consider `O=C1CCc2ccc3c(ccc4ccccc43)c21`, for which, where the note is “Species/Cell Type: Salmonella typhimurium (one or more of the five standard strains: TA98, TA100, TA1535, TA1537, and TA1538), Assay Type: Histidine reverse gene mutation, Ames assay, Assay Code: SAL+*, Activation: With metabolic activation, Evaluation Type: Evaluation A (Pre-1980)”, the mutagenic call was “active; positive”.

Turning to `O[C@@H]1[C@H]2O[C@H]2c2cc3ccc4ccccc4c3cc2[C@H]1O`, for the setting “Species/Cell Type: Chinese hamster lung (V79) cells, Assay Type: Forward gene mutation at the HPRT or ouabain locus, Assay Code: V79+, Evaluation Type: Evaluation A (Pre-1980)”, the mutagenic call is “active; positive”.

As to `CC(=O)Nc1nc(/C=C/c2ccc([N+](=O)[O-])o2)cs1`, the mutagenic call under setting [6] is “active; positive”.

In the case of `O[C@H]1[C@H](O)[C@@H](O)c2c(cc3ccc4cccc5ccc2c3c45)[C@@H]1O`, the mutagenic call under setting [1] is “inactive; negative”.

`COC12C(=O)N(C)C(=O)N(C)C1(OC)N(C)C(=O)N2C` (stereo not given): the mutagenic call (Species/Cell Type: Allium cepa, Assay Type: Chromosome aberrations, Assay Code: ALC-, Evaluation Type: Evaluation A (Pre-1980)) is “inactive; negative”.

Regarding `Nc1ccc(N=Nc2cccc(N=Nc3ccc(N)cc3N)c2)c(N)c1`, the mutagenic call (Species/Cell Type: Bacillus subtilis (H17 vs M45), Assay Type: Rec-assay, spot test, DNA effects (bacterial DNA repair), Assay Code: REWT, Evaluation Type: Evaluation A (Pre-1980)) is recorded as “no conclusion”.

`S=C=Nc1cccc2ccccc12`: the mutagenic call is “inactive; negative” (Species/Cell Type: Escherichia coli polA (W3110 vs P3478), Assay Type: Rec-assay, DNA effects (bacterial DNA repair), Assay Code: RE2-, Evaluation Type: Evaluation A (Pre-1980)); “no conclusion” (Species/Cell Type: Escherichia coli polA (W3119 vs P3478), Assay Type: Rec-assay, DNA effects (bacterial DNA repair), Assay Code: RE1T, Evaluation Type: Evaluation A (Pre-1980)); “active; positive” (Species/Cell Type: Mouse (BALB/c-3T3) cells, Assay Type: Cell transformation, Assay Code: CTB+D, Dose Response: With dose response, Evaluation Type: Evaluation A (Pre-1980)); “inactive; negative” (Species/Cell Type: Saccharomyces cerevisiae, Assay Type: Mitotic recombination or gene conversion, Assay Code: YEH-, Evaluation Type: Evaluation A (Pre-1980)); “inactive; negative” (Species/Cell Type: Salmonella typhimurium, Assay Type: Forward and reverse gene mutation, host-mediated assay, Assay Code: HMA-, Evaluation Type: Evaluation A (Pre-1980)); “inactive; negative” (Species/Cell Type: Syrian hamster embryo (SHE) cells, Assay Type: Cell transformation, clonal assay, Assay Code: CTC-, Evaluation Type: Evaluation A (Pre-1980)). Besides, under setting [2], the call is on record as “no conclusion”.

In the case of `CC(C)Oc1cc(-n2nc(C(C)(C)C)oc2=O)c(Cl)cc1Cl`, for the setting “Species/Cell Type: Saccharomyces cerevisiae, Assay Type: Mitotic recombination or gene conversion, Assay Code: YEC-, Evaluation Type: Evaluation A (Pre-1980)”, the mutagenic call is “inactive; negative”.

Consider `N[C@@H](CC(=O)O)C(=O)O`, for which the mutagenic call is “active; positive” (Species/Cell Type: Allium cepa, Assay Type: Chromosome aberrations, Assay Code: ALC+D, Dose Response: With dose response, Evaluation Type: Evaluation A (Pre-1980)) and “active; positive” (Species/Cell Type: Human, Sex: Male, Assay Type: Sperm morphology, Assay Code: SPH+, Evaluation Type: Evaluation A (Pre-1980)).

For `F[Si-2](F)(F)(F)(F)F`, the mutagenic call under setting [7] is recorded as “no conclusion”.

As for `OC[C@@H](O)[C@@H](O)[C@H](O)[C@H](O)CO`, the mutagenic call (Species/Cell Type: Escherichia coli WP2 UVRA, Assay Type: Tryptophan reverse gene mutation, Assay Code: WPU-*, Activation: With metabolic activation, Evaluation Type: Evaluation A (Pre-1980)) was “inactive; negative”. Also, where the note is “Species/Cell Type: Nonhuman, Assay Code: CCG-, Evaluation Type: Evaluation A (Pre-1980)”, the call is “inactive; negative”.

For `Cc1ccc(S(N)(=O)=O)cc1`, the mutagenic call was “no conclusion” (Species/Cell Type: Drosophila melanogaster, Assay Type: Sex-linked recessive lethal gene mutation, Assay Code: SRLT, Evaluation Type: Evaluation A (Pre-1980)) and “no conclusion” under setting [7].

Regarding `COC(=O)/C=C(\C)OP(=O)(OC)OC`, the mutagenic call was “active; positive” under setting [4]; “active; positive” (Species/Cell Type: Tradescantia species, Assay Type: Chromosome aberrations, Assay Code: TRC+, Evaluation Type: Evaluation A (Pre-1980)); “active; positive” under setting [5].

Consider `C/C=C(\C(=C/C)c1ccc(O)cc1)c1ccc(O)cc1`, for which the mutagenic call under setting [4] was “active; positive”.

Regarding `Cc1ccc(Nc2ccc3c4c(cccc24)C(=O)c2ccccc2-3)cc1`, under setting [6], the mutagenic call was “active; positive”.

Regarding `Cc1ncc([N+](=O)[O-])n1C`, the mutagenic call under setting [6] was “active; positive”.
